# Legend:
# [1] = system: hematopoietic stem and progenitor cells; experiment: Phenotypic HSCs, HSPCs and myeloid progenitors in blood, spleen and bone marrow by flow cytometry; type: in vivo, C57BL/6 mice
# Description: Additional HIF-α potentiating agents in the form of PHD inhibitors were tested for their ability to enhance mobilization induced by G-CSF. Compound A, Compound B or Compound C, were tested in male, 7 weeks-old C57BL/6 mice. Mice were injected twice daily sub-cutaneously with rhuG-CSF at a dose of 125 μg/kg per injection for four days. Mice were gavaged with 20 mg/kg Compound A, Compound B, Compound C or vehicle control once daily for three days beginning on day 1 of the experiment.
# (§1) At the end of treatment, blood was harvested by cardiac puncture, mice were sacrificed by cervical dislocation and spleens harvested. Femurs were removed, cleaned and the bone marrow was flushed with 1 mL PBS+10% newborn calf serum (NCS).
# (§2) The number of phenotypic hematopoietic stem and progenitor cells remaining in the bone marrow following treatment was measured by flow cytometry using antibodies specific for lineage markers (CD3, CD5, CD45R/B220, F4/80, Gr1, CD41, Ter119), Sca-1, Kit, CD48 and CD150. Similarly, the number of phenotypic hematopoietic stem cells mobilized into the blood and spleen were measured. Colony assays were also performed on blood and spleen to determine the number of colony forming cells per mL of blood and per spleen. All results are presented as mean f standard deviation with n=6 per groups. Levels of significance for differences were calculated using the Student's t-test.
# All procedures were approved by the animal experimentation ethics committee of the University of Queensland. All experiments were performed on nine to twelve-week old C57BL/6 male mice or genetically modified mice back-crossed at least 10 times into C57BL/6. Recombinant human G-CSF (Amgen, Thousand Oaks, Calif.) was injected twice daily subcutaneously at 125 μg/kg per injection for up to 4 consecutive days. Plerixafor (AMD3100 octohydrochloride, Tocris Bioscience, Bristol, UK) was injected intraperitoneally as a single 16 mg/kg dose corresponding to 10 mg/kg of AMD3100 base. Tissues were harvested 1 h after Plerixafor administration. […] Compounds H and J were administered at 60 mg/kg and Compound K was administered at 100 mg/kg. Control mice were injected with an equivalent volume of saline. At specified time-points, mice were anesthetized with isoflurane before cardiac puncture to harvest blood. Mice were then euthanized by cervical dislocation and BM and bones harvested.
# Following flushing with PBS plus 2% NCS, enriched central BM cells were pelleted at 370×g for 5 minutes at 4° C. and resuspended in CD16/CD32 hybridoma 2.4G2 supernatant to block IgGFc receptors. HSCs were stained with the biotinylated lineage antibody cocktail (CD3, CD5, B220, CD11b, Gr-1, Ter119) and biotinylated CD41 together with streptavidin (SAV)-Pacific Blue, anti-Sca-1-PECY7, anti-KIT-APC, CD48-FITC and CD150-PE as previously described (17). Data were acquired on a CyAn (Dako Cytomation) flow cytometer and analyzed following compensation with single color controls using FlowJo software (Tree Star, Ashland, Oreg.).
# [2] = system: colony-forming cells (CFCs); experiment: Mobilization of colony-forming cells (CFC/CFU) to blood and spleen, colony assays; type: in vivo, C57BL/6 mice
# Description: Mobilization of colony-forming cells (CFCs) to the blood and spleen were measured (FIG. 1B).
# This was divided into two experiments in which G-CSF was administered for 2 days in one experiment and 4 days in the other (FIG. 2). […] Mobilization of CFCs, phenotypic Lin^−CD41^−Sca1^+Kit^+ HSPCs and Lin^−CD41^− Sca1^+Kit^+CD48^−CD150^+ HSCs were measured in blood and spleens.
# Additional HIF-α potentiating agents in the form of PHD inhibitors were tested for their ability to enhance mobilization induced by G-CSF.
# as §1
# as §2, with “All results are presented as mean f standard deviation with n=6 per groups.” left out
# All procedures were approved by the animal experimentation ethics committee of the University of Queensland. […] Plerixafor (AMD3100 octohydrochloride, Tocris Bioscience, Bristol, UK) was injected intraperitoneally as a single 16 mg/kg dose corresponding to 10 mg/kg of AMD3100 base. Tissues were harvested 1 h after Plerixafor administration. […] Control mice were injected with an equivalent volume of saline. At specified time-points, mice were anesthetized with isoflurane before cardiac puncture to harvest blood. Mice were then euthanized by cervical dislocation and BM and bones harvested.
# Optimal concentrations of mouse IL-3, IL-6 and soluble kit ligand were added as conditioned media from stably transfected BHK cell lines. Colonies were counted after 7 days culture at 37° C. in a humidified incubator containing 5% CO2.
# [3] = Compound X added to 2 days G-CSF plus Plerixafor, P<0.01
# [4] = G-CSF 2 days together with Compound X, p<0.005
# [5] = Compound X added to 2 days G-CSF plus Plerixafor, p<0.005
smiles,measurement,setting,value
"O=C(O)CNC(=O)c1ncc2cc(Sc3ccccc3)ccc2c1O [Compound X, [(4-Hydroxy-7-phenylsulfanyl-isoquinoline-3-carbonyl)-amino]-acetic acid]",boost of mobilization of HSPCs in the blood,[1]; [3],2.5 fold
same,boost of mobilization of HSPCs in the spleen,[1]; [3],4 fold
same,boost of mobilization of phenotypic HSCs,[1]; [3],3 fold
same,number of phenotypic HSCs and HSPCs in the blood,"[1]; Compound X added to 4 days G-CSF and Plerixafor, P<0.001",dramatically increased
same,number of Lin−Sca1+Kit+ HSPCs in spleen versus G-CSF alone,[1]; [4],tripled
same,number of Lin−Sca1+Kit+ HSPCs in the blood versus G-CSF alone,[1]; [4],doubled
same,increase in number of phenotypic HSCs versus G-CSF alone,"[1]; G-CSF 2 days together with Compound X, p<0.005, FIG. 2C-D",3 fold
same,mobilization of HSPC to the spleen,"[2]; 1 hr following Plerixafor treatment with or without Compound X, FIG. 1D",no significant mobilization
same,day of Compound X administration at which CFC mobilization into blood and spleen peaks,"[2]; Compound X 1-4 days, G-CSF for the last 2 days, FIG. 1C",3 days
same,further increase of CFC/mL mobilized into blood,[2]; [5],2.5 fold
same,further increase of CFC/spleen,[2]; [5],4 fold
same,boost of CFC/mL blood,"[2]; Compound X added to 4 days G-CSF plus Plerixafor, p<0.005",2.5 fold
same,CFC mobilization into the blood,[2]; Compound X alone for 3 days,did not induce
same,increase in CFCs mobilized per mL blood,"[2]; Example 1: Compound X 3 days added to G-CSF, following 2 days of G-CSF, FIG. 1B",2.5 fold
same,increase of CFCs mobilized to the spleen,"[2]; Example 1: Compound X 3 days added to G-CSF, following 3 days of G-CSF, FIG. 1B",6 fold
same,increase in the number of CFC/mL blood,"[2]; Example 3: 4 days G-CSF, addition of Compound X, P<0.001",4 fold
same,number of CFC/spleen,"[2]; Example 3: 4 days G-CSF, addition of Compound X, P<0.01",further significant increase
same,mobilizing effect,[2]; Example 3: Compound X alone (data not shown),no mobilizing effect
same,CFC mobilized to the blood versus G-CSF alone,"[2]; Example 3: G-CSF 250 μg/kg/day 2 days + Compound X 20 mg/kg/day 3 days (G+X3), p<0.001, FIG. 2B",4 fold
same,CFC mobilized to the spleen versus G-CSF alone,"[2]; Example 3: G-CSF 2 days + Compound X 20 mg/kg/day 3 days (G+X3), p<0.001, FIG. 2B",47 fold
same,number of CFC mobilized per mL blood in response to Plerixafor,"[2]; Plerixafor 1 h plus 2 to 3 day treatment with Compound X, FIG. 1D",significantly increased
